Activity calls are given as the source filed them. The rule behind the calls is not given here.
Tests used:
[1] = AUC (0 to t) in NOD/SCID mouse tumor xenografted with human MV4-11 cells at 4.5 mg/kg, po measured up to 24 hrs by LC-MS/MS analysis; type: ADME, organism-based, Neoplasm
[2] = system: COLO 205; assay: cells; conditions: Homo sapiens, COLO 205, 72 h
Description: Antiproliferative activity against human COLO 205 cells assessed as inhibition of cell growth incubated for 72 hrs by celltiter-glo luminescent cell viability assay

[3] = biological target: Cytochrome P450 2C8 (Homo sapiens, UniProt P10632); assay: Inhibition of CYP2C8 in human liver microsomes by UPLC-MS/MS analysis; type: ADME, Microsome
Chain of Cytochrome P450 2C8 (P10632 whole entry): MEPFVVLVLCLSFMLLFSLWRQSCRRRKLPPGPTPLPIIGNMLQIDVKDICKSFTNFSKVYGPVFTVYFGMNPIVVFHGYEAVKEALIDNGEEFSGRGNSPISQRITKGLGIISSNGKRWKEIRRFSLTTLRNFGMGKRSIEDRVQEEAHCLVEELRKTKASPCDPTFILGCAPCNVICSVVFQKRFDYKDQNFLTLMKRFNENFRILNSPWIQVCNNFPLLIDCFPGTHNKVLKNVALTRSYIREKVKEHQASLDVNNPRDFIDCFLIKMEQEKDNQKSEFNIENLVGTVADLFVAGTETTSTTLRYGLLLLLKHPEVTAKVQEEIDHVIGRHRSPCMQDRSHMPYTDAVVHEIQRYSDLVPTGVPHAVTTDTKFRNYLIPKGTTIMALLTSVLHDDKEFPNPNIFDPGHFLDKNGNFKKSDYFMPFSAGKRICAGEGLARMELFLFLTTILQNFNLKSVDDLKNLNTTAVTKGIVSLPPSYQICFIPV

[4] = biological target: Proto-oncogene tyrosine-protein kinase receptor Ret (Homo sapiens, UniProt P07949, G691S); assay: Inhibition of human RET G691S mutant by biochemical kinase binding assay
Chain of Proto-oncogene tyrosine-protein kinase receptor Ret (Homo sapiens, UniProt P07949, G691S) (P07949 29-1114 G691S limits assumed): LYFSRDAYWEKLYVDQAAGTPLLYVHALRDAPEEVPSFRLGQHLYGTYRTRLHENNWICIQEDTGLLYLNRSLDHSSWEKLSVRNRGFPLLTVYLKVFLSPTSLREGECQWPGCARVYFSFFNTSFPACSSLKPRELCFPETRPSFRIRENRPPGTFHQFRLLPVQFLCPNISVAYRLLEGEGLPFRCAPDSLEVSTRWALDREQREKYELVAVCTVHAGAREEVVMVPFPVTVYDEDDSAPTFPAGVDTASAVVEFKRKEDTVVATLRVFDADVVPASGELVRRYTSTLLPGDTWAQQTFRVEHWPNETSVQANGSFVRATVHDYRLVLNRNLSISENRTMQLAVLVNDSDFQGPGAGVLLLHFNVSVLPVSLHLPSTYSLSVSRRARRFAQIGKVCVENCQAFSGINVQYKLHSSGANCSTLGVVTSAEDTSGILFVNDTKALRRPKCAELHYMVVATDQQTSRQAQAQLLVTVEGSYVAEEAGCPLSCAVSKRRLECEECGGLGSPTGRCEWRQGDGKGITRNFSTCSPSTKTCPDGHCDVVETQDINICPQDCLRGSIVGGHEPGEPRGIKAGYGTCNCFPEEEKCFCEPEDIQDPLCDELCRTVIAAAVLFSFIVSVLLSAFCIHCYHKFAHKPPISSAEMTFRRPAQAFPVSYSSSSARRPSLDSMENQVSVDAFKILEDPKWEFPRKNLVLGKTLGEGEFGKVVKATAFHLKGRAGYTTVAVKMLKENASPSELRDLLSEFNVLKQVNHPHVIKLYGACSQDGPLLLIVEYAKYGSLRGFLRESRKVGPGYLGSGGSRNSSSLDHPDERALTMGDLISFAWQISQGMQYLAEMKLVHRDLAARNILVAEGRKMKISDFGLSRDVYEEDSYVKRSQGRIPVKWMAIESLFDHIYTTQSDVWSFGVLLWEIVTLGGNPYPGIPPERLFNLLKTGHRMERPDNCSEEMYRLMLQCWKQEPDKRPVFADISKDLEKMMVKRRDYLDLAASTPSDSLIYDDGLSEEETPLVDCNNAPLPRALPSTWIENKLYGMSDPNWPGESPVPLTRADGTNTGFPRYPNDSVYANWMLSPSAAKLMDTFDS

[5] = Tmax in monkey plasma at 5 mg/kg, po measured up to 24 hrs by LC-MS/MS analysis; type: ADME, organism-based, Macaca mulatta; conditions: rhesus monkey
[6] = Tmax in mouse plasma at 10 mg/kg, po measured up to 24 hrs by LC-MS/MS analysis; type: ADME, organism-based
[7] = system: BaF3; assay: Antiproliferative activity against mouse BaF3 cells harbouring FLT3-ITD-N676D mutant assessed as inhibition of cell growth incubated for 72 hrs by celltiter-glo luminescent cell viability assay; type: functional, cell-based; conditions: BaF3, 72 h
[8] = Cmax in dog plasma at 1 mg/kg, iv measured up to 24 hrs by LC-MS/MS analysis; type: ADME, organism-based, Canis lupus familiaris
[9] = Volume of distribution at steady state in dog plasma at 1 mg/kg, iv measured up to 24 hrs by LC-MS/MS analysis; type: ADME, organism-based, Canis lupus familiaris; conditions: read-out: Vdss
[10] = Clearance in monkey plasma at 1 mg/kg, iv measured up to 24 hrs by LC-MS/MS analysis; type: ADME, organism-based, Macaca mulatta; conditions: rhesus monkey
[11] = system: MOLM-13; assay: cells; conditions: Homo sapiens, MOLM-13, 72 h
Description: Antiproliferative activity against human MOLM-13 cells assessed as inhibition of cell growth incubated for 72 hrs by celltiter-glo luminescent cell viability assay

[12] = Cmax in mouse plasma at 2 mg/kg, iv measured up to 24 hrs by LC-MS/MS analysis; type: ADME, organism-based
[13] = system: RS4-11; assay: cells; conditions: Homo sapiens, RS4-11, 72 h
Description: Antiproliferative activity against human RS4;11 cells assessed as inhibition of cell growth incubated for 72 hrs by celltiter-glo luminescent cell viability assay

[14] = Half life in dog plasma at 5 mg/kg, po measured up to 24 hrs by LC-MS/MS analysis; type: ADME, organism-based, Canis lupus familiaris
[15] = biological target: Platelet-derived growth factor receptor beta (Homo sapiens, UniProt P09619); assay: Inhibition of human PDGFR beta by biochemical kinase binding assay
[16] = biological target: Proto-oncogene tyrosine-protein kinase receptor Ret (Homo sapiens, UniProt P07949); assay: Inhibition of human RET by biochemical kinase binding assay
Chain of Proto-oncogene tyrosine-protein kinase receptor Ret (Homo sapiens, UniProt P07949) (P07949 whole entry): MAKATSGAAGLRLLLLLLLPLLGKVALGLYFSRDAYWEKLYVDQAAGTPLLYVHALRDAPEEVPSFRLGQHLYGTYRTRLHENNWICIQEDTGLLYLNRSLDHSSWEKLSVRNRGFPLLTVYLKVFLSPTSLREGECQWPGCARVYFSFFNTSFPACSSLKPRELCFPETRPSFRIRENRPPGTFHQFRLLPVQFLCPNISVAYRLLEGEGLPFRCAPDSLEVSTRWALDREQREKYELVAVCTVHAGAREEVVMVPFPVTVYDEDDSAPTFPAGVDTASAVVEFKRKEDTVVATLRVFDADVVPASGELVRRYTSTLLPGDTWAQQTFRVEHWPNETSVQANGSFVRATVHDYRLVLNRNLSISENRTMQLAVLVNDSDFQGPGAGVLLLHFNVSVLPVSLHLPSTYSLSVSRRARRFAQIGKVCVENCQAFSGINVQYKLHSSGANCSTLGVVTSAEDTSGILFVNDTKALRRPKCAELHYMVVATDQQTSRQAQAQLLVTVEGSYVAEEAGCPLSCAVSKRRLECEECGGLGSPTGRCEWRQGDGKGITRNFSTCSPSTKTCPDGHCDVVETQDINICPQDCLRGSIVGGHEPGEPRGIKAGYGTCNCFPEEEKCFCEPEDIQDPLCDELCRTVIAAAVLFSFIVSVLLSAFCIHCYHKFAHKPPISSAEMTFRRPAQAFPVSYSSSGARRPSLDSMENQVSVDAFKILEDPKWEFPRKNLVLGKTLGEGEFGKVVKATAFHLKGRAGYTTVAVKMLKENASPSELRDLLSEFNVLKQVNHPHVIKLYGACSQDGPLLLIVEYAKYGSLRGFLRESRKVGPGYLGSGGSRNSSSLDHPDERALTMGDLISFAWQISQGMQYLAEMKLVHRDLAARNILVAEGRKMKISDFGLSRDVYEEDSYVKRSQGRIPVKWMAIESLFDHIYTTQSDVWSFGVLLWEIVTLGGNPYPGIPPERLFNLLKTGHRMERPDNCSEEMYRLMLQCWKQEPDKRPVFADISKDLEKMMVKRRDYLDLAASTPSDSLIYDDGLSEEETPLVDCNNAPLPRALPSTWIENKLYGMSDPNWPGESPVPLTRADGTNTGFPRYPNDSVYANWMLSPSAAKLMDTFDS

[17] = biological target: Receptor-type tyrosine-protein kinase FLT3 (Homo sapiens) (UniProt P36888); assay: Inhibition of FLT3 in human MV4-11 cells harbouring FLT3-ITD mutant assessed as effect on STAT5 protein level at 1 to 1000 nM measured after 2 hrs by Western blot analysis; type: cell-based; conditions: dose 1-1000 nM
Chain of Receptor-type tyrosine-protein kinase FLT3 (Homo sapiens) (P36888 whole entry): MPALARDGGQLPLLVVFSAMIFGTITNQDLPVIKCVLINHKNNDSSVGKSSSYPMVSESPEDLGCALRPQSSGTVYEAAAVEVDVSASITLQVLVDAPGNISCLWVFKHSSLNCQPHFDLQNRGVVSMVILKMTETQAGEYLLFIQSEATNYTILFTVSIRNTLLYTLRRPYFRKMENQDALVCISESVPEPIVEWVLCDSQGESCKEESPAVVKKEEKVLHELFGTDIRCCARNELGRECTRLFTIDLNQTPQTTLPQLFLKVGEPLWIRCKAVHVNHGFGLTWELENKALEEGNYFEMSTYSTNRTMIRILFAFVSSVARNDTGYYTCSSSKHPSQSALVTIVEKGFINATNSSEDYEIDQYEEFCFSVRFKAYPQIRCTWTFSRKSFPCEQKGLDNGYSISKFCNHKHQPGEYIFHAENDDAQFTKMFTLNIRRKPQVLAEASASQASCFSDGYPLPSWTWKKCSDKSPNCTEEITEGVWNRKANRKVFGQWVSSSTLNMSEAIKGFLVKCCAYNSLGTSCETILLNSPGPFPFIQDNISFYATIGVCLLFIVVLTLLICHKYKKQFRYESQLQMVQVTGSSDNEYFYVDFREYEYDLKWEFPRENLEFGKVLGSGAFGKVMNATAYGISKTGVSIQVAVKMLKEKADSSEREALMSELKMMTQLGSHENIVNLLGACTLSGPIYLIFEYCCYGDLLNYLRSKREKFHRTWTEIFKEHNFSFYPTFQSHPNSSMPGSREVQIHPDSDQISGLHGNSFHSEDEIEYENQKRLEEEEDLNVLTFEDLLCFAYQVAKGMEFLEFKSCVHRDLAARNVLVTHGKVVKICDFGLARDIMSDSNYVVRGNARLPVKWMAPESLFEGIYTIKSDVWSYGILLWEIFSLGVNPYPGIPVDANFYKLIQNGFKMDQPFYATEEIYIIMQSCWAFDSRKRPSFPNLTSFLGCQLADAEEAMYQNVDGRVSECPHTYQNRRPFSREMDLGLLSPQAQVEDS

[18] = Cmax in NOD/SCID mouse plasma xenografted with human MV4-11 cells at 4.5 mg/kg, po measured up to 24 hrs by LC-MS/MS analysis; type: ADME, organism-based
[19] = Half life in monkey plasma at 1 mg/kg, iv measured up to 24 hrs by LC-MS/MS analysis; type: ADME, organism-based, Macaca mulatta; conditions: rhesus monkey
[20] = biological target: Cytochrome P450 1A2 (Homo sapiens, UniProt P05177); assay: Inhibition of CYP1A2 in human liver microsomes by UPLC-MS/MS analysis; type: ADME, Microsome
Chain of Cytochrome P450 1A2 (P05177 whole entry): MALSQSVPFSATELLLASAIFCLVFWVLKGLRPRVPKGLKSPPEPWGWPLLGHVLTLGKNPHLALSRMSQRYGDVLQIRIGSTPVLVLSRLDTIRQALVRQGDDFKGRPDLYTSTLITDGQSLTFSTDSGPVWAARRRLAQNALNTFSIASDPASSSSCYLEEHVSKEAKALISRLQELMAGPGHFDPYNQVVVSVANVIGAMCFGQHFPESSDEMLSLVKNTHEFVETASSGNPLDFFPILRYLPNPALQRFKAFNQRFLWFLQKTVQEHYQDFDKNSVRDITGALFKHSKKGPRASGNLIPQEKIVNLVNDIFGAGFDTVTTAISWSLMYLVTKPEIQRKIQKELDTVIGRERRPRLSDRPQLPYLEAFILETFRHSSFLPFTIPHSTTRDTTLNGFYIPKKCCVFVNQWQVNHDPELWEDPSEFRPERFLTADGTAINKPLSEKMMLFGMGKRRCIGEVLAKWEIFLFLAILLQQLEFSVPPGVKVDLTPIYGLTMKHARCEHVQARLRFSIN

[21] = Half life in mouse plasma at 2 mg/kg, iv measured up to 24 hrs by LC-MS/MS analysis; type: ADME, organism-based
[22] = biological target: Mast/stem cell growth factor receptor Kit (Homo sapiens, UniProt P10721, Y823D); assay: Inhibition of human KIT Y823D mutant by biochemical kinase binding assay
[23] = Cmax in monkey plasma at 5 mg/kg, po measured up to 24 hrs by LC-MS/MS analysis; type: ADME, organism-based, Macaca mulatta; conditions: rhesus monkey
[24] = system: BaF3; assay: Antiproliferative activity against mouse BaF3 cells harbouring FLT3-ITD-D835I mutant assessed as inhibition of cell growth incubated for 72 hrs by celltiter-glo luminescent cell viability assay; type: functional, cell-based; conditions: BaF3, 72 h
[25] = system: U-87 MG; assay: cells; conditions: Homo sapiens, 72 h
Description: Antiproliferative activity against human U-87 MG cells assessed as inhibition of cell growth incubated for 72 hrs by celltiter-glo luminescent cell viability assay

[26] = Antitumor activity against human […] cells harbouring FLT3-ITD xenografted in NOD/SCID mouse model assessed as tumor regression rate at 1.5 to 4.5 mg/kg/day, po administered for 21 days and measured for 31 days post dose by caliper analysis relative to control; type: functional, MV4-11; conditions: dose lower […], dose upper 4.5 mg/kg/day, time 52 day
[27] = system: MOLM-13; assay: Antitumor activity against human MOLM-13 cells xenografted in NOD/SCID mouse model assessed as tumor growth inhibition at […], po in presence of Ara-C by caliper analysis relative to control; type: functional; conditions: dose 1.5 mg/kg/day, read-out: TGI
[28] = system: Receptor-type tyrosine-protein kinase FLT3 (Homo sapiens), P36888 [UNDEFINED MUTATION]; assay: Inhibition of FLT3 in human MV4-11 cells harbouring FLT3-ITD mutant assessed as inhibition of ERK phosphorylation level measured after 2 hrs by Western blot analysis; type: cell-based; conditions: dose 1-1000 nM
Chain of Receptor-type tyrosine-protein kinase FLT3 (Homo sapiens), P36888 [UNDEFINED MUTATION] (P36888 whole entry, looked up, change not shown): as the sequence (P36888 whole entry) above

[29] = system: SW-620; assay: cells; conditions: Homo sapiens, SW-620, 72 h
Description: Antiproliferative activity against human SW620 cells assessed as inhibition of cell growth incubated for 72 hrs by celltiter-glo luminescent cell viability assay

[30] = Oral bioavailability in rat plasma at 5 mg/kg measured up to 24 hrs by LC-MS/MS analysis; type: ADME, organism-based
[31] = Half life in monkey plasma at 5 mg/kg, po measured up to 24 hrs by LC-MS/MS analysis; type: ADME, organism-based, Macaca mulatta; conditions: rhesus monkey
[32] = Tmax in NOD/SCID mouse tumor xenografted with human MV4-11 cells at […], po measured up to 24 hrs by LC-MS/MS analysis; type: ADME, organism-based, Neoplasm; conditions: dose 1.5 mg/kg
[33] = Cmax in NOD/SCID mouse plasma xenografted with human MV4-11 cells at 0.5 mg/kg, po measured up to 24 hrs by LC-MS/MS analysis; type: ADME, organism-based
[34] = system: NCI-H226; assay: cells; conditions: Homo sapiens, NCI-H226, 72 h
Description: Antiproliferative activity against human NCI-H226 cells assessed as inhibition of cell growth incubated for 72 hrs by celltiter-glo luminescent cell viability assay

[35] = Half life in NOD/SCID mouse tumor xenografted with human MV4-11 cells at 0.5 mg/kg, po measured up to 24 hrs by LC-MS/MS analysis; type: ADME, organism-based, Neoplasm
[36] = Oral bioavailability in mouse plasma at 10 mg/kg measured up to 24 hrs by LC-MS/MS analysis; type: ADME, organism-based
[37] = system: Receptor-type tyrosine-protein kinase FLT3 (Homo sapiens), P36888 [UNDEFINED MUTATION]; assay: Inhibition of FLT3 in human MV4-11 cells harbouring FLT3-ITD mutant assessed as effect on AKT protein level at 1 to 1000 nM measured after 2 hrs by Western blot analysis; type: cell-based; conditions: dose 1-1000 nM
[38] = Tmax in NOD/SCID mouse plasma xenografted with human MV4-11 cells at 4.5 mg/kg, po measured up to 24 hrs by LC-MS/MS analysis; type: ADME, organism-based
[39] = system: BaF3; assay: Antiproliferative activity against mouse BaF3 cells harbouring FLT3-ITD-F691L mutant assessed as inhibition of cell growth incubated for 72 hrs by celltiter-glo luminescent cell viability assay; type: functional, cell-based; conditions: BaF3, 72 h
[40] = system: MCF7; assay: cells; conditions: Homo sapiens, MCF7, 72 h
Description: Antiproliferative activity against human MCF7 cells assessed as inhibition of cell growth incubated for 72 hrs by celltiter-glo luminescent cell viability assay

AUC(0-t) at 24 h [1]: 4700 ng·h/mL
IC50 [2]: > 10000 nM
IC50 [3]: > 33300 nM
IC50 [4]: 439 nM
Tmax [5]: 4 h
Tmax [6]: 0.5 h
IC50 [7]: 6.9 nM
Cmax [8]: 633 ng/mL
Vd [9]: 5.08 L/kg
clearance [10]: 1.35 mL/min/kg
IC50 [11]: 1 nM
Cmax [12]: 1820 ng/mL
IC50 [13]: > 10000 nM
half-life [14]: 7.41 h
IC50 [15]: 1630 nM
IC50 [16]: 110 nM
inhibition [17]: inactive
Cmax [18]: 199 ng/mL
half-life [19]: 13.1 h
IC50 [20]: > 33300 nM
half-life [21]: 1.17 h
IC50 [22]: 283 nM
Cmax [23]: 1410 ng/mL
IC50 [24]: 302 nM
IC50 [25]: > 10000 nM
inhibition [28]: Dose-dependent-effect
IC50 [29]: > 10000 nM
bioavailability [30]: 67.9%
half-life [31]: 8.94 h
Tmax at 24 h [32]: 6 h
Cmax [33]: 20.5 ng/mL
IC50 [34]: > 10000 nM
half-life [35]: 11.3 h
bioavailability [36]: 50.3%
inhibition [37]: inactive
Tmax [38]: 1 h
IC50 [39]: 154 nM
IC50 [40]: > 10000 nM
Compound: CC(C)(C)c1cc(NC(=O)Nc2ccc(C#Cc3ccc(OCCCN4CCOCC4)cc3)cc2)no1
Activity [26]: 100%
inhibition in vivo at […] [27]: 80%

— ChEMBL document CHEMBL6134864, “Discovery of FLT3-ITD Inhibitor Clifutinib: A Novel Biphenylacetylene Urea Derivative in Clinical Trials for the Treatment of Relapsed/Refractory FLT3-ITD+ Acute Myeloid Leukemia” (J Med Chem, 2025)
